# According to patent US6355682B1, “Treatment of acute renal failure by administration of N-acetylcysteine” (priority 2001, dated 2002):
# System: patients affected by acute renal failures
# Test: Clinical case reports: N-acetycysteine given to patients with acute renal failure
# Assay type: in vivo, human
smiles,measurement,setting,value
"CC(=O)N[C@@H](CS)C(=O)O [N-acetycysteine, N-acetylcysteine]",renal function,"Case No. 1: 10 mg/kg twice daily, over the next several days",returned to normal
same,BUN and Creatinin,"Case No. 1: acute renal failure after cardiogenic shock, 600 mg in a 20% solution every twelve hours, the next day",the rise of BUN and Creatinin stopped
same,need for dialysis,Case No. 1: after N-acetycysteine treatment,Dialysis was no longer required
same,renal function,"Case No. 2: 20 mg/kg every twelve hours, over the next seventy-two hours",returned to normal
same,need for dialysis,Case No. 2: after N-acetycysteine treatment,Dialysis was no longer required
same,BUN and Creatinin,"Case No. 2: hypovolemic shock from acute pancreatitis, 20% solution, 20 mg/kg every twelve hours, values had risen to five times normal",The rise in their BUN and Creatinin stopped
same,urine output,"Case No. 3: 20 mg/kg every twelve hours via nasogastric tube, before treatment less than 100 cc per day",increased to the normal level
same,BUN and Creatinin,"Case No. 3: multi-organ failure after cardiac arrest, 20 mg/kg every twelve hours via nasogastric tube, over the next several days",progressively declined
same,Creatinin clearance,"Case No. 4: 10 mg/kg every twelve hours, two weeks after onset of renal toxicity, 11 ml/minute before treatment, normal for age above 65 ml/min",22 mL/min
same,urine output,"Case No. 4: 10 mg/kg every twelve hours, within several days",returned to normal
same,Bun/Creatinin,"Case No. 4: diabetic patient, acute renal failure under IV Vancomycin and Imipenim, 10 mg/kg every twelve hours, values had risen to five times normal",progressively declined
same,need for dialysis,Case No. 4: two weeks after onset of renal toxicity,dialysis was no longer required
same,potassium level,"Case No. 5: 20 mg/kg every twelve hours, within 24 hours, serum potassium 6.8 before admission",normalized
same,urine volume,"Case No. 5: deterioration of chronic renal failure after Ciprofloxacin, 20 mg/kg every twelve hours, within 24 hours",substantially increased
same,need for hemodialysis,Case No. 5: remained on 600 mg twice daily,no longer required any hemodialysis
